Where two headings read alike, the source gives them in different places.
Assays:
[1] = biological target: T1, human liver carboxylesterase (hCE1) (Homo sapiens, UniProt P23141); assay: biochemical; type: biochemical
T1 sequence (P23141 18-567): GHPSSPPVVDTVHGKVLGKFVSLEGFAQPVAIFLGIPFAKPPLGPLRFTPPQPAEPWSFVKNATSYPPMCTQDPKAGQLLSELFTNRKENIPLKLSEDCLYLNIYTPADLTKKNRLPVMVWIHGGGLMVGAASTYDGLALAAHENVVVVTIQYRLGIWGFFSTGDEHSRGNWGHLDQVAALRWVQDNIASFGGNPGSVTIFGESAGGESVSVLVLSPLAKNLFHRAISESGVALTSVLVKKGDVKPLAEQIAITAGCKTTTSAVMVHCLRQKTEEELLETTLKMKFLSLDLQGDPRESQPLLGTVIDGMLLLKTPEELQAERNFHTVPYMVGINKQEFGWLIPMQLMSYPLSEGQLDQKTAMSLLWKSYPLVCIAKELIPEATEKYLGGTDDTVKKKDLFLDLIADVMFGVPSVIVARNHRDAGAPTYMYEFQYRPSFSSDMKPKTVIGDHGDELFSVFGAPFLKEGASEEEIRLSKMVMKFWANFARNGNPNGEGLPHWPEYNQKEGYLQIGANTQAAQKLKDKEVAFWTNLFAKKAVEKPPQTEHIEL

[2] = biological target: T2, rabbit liver carboxylesterase (rCE) (Oryctolagus cuniculus, UniProt P12337); assay: biochemical; type: biochemical
T2 sequence (P12337 19-565): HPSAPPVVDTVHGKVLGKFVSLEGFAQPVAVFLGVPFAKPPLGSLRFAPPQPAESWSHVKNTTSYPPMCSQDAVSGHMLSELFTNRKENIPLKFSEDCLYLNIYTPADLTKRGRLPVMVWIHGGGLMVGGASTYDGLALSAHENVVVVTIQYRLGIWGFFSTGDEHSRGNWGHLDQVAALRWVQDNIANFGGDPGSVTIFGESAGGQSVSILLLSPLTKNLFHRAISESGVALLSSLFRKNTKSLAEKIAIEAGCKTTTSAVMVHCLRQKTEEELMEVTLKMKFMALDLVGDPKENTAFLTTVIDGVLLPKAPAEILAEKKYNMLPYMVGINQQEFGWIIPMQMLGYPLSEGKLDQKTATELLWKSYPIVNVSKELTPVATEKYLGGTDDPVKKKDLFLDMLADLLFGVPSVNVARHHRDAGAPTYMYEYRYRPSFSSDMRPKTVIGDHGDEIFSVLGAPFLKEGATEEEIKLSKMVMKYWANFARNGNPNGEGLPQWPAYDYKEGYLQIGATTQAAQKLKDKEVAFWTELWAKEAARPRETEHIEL

[3] = biological target: T3, human acetylcholinesterase (hAcChE) (Homo sapiens, UniProt P22303); assay: biochemical; type: biochemical
T3 construct: purchased Sigma Biochemicals (St. Louis, Mo.)
Experimental: Data was transferred to GraphPad Prism software, and Ki values were calculated as described in the Example above.

[4] = biological target: human butyrylcholinesterase (hBuChE) (Homo sapiens, UniProt P06276); assay: biochemical
[5] = biological target: T4, human small intestine carboxylesterase (hiCE) (Homo sapiens, UniProt O00748); assay: biochemical; type: biochemical
T4 sequence (O00748 27-559): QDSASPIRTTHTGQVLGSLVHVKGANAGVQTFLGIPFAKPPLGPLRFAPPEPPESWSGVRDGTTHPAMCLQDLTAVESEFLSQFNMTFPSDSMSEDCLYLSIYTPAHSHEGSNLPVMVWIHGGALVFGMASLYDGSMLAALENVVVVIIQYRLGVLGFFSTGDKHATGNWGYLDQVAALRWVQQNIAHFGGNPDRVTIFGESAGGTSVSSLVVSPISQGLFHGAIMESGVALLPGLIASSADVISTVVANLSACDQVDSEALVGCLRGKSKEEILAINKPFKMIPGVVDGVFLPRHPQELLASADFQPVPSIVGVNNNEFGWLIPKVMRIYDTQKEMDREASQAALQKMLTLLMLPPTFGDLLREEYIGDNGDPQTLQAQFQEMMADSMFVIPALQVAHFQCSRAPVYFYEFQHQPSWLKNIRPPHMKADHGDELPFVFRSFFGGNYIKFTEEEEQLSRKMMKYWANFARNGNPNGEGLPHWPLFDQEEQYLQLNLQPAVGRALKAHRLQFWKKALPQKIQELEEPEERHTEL

[6] = biological target: T5, human intestinal carboxylesterase in U373MGhiCE cells (Homo sapiens, UniProt O00748); assay: Inhibition of intracellular carboxylesterase in U373MGhiCE cells; type: cell-based
T5 construct: expressed in transfected cells; host or cells: U373MG human glioma cells (U373MGhiCE)
T5 sequence (O00748 27-559): T4 sequence (O00748 27-559)
Experimental: To monitor the ability of the compounds to cross the cell membrane and inhibit carboxylesterase activity intracellularly, an assay using human tumor cells expressing hiCE was devised. U373MGhiCE (a human glioma cell line transfected with a plasmid expressing hiCE) were plated in T25 flasks and allowed to grow to confluency (approximately 2-5×10^5 cells). Inhibitors were then added at a final concentration of […], and incubation allowed to continue for 1 hour. At this time, the cells were washed extensively with 5 ml of complete media and 2×5 ml of Hanks balanced salt solution, and cell extracts were prepared. Carboxylesterase activity was then determined using o-NPA as a substrate.
Table 8 sets forth the level of intracellular enzyme inhibition following incubation of human glioblastoma tumor cells expressing human intestinal carboxylesterase with 10 μM of each compound identified in Table 3.

[7] = o-NPA as substrate, Table 6, read-out: hCE1 Ki ± SE
[8] = o-NPA as substrate, Table 6, read-out: rCE Ki ± SE
[9] = butyrylthiocholine as substrate, Table 6, read-out: hBuChE Ki
[10] = o-NPA as substrate, Table 6, read-out: hiCE Ki ± SE
[11] = acetylthiocholine as substrate, Table 6, read-out: hAcChE Ki
[12] = o-NPA as substrate, Table 5, read-out: Ki hiCE
[13] = o-NPA as substrate, Table 5, read-out: Ki hCE1
[14] = acetylthiocholine substrate, Table 5, read-out: Ki hAcChE

human butyrylcholinesterase (hBuChE), sequence (P06276 29-602): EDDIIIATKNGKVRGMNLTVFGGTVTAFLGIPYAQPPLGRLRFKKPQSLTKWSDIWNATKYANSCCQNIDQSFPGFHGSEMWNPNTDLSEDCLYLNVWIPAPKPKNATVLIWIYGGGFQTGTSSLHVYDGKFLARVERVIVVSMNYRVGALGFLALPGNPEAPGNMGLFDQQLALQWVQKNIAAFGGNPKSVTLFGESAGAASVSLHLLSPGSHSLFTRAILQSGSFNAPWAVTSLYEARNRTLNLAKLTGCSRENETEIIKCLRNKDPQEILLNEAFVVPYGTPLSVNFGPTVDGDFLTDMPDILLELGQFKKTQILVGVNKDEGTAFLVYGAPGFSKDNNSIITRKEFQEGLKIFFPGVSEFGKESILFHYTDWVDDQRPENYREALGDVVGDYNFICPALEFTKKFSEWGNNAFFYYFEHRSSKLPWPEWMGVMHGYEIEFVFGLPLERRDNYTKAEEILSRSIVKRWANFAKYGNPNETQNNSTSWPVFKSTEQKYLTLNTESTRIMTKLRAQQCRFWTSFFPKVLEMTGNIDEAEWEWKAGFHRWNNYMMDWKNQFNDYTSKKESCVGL
T3 sequence (P22303 32-614): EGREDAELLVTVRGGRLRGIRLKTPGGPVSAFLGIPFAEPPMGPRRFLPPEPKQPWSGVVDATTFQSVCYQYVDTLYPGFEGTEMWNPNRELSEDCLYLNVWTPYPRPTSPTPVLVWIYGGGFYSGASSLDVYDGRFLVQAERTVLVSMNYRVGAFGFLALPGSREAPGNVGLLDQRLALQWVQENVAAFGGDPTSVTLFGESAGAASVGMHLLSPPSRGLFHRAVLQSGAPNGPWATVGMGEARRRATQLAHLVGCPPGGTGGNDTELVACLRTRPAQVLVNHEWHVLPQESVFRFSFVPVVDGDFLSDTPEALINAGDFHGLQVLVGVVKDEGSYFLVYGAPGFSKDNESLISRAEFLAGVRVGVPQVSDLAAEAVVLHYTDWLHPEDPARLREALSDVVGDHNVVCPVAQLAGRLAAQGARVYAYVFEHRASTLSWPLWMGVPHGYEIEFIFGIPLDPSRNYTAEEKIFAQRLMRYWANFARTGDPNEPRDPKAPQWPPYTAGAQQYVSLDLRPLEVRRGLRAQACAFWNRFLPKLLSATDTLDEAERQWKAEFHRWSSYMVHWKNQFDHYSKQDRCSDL

SMILES | Ki [1, 7] [µM] | Ki [2, 8] [µM] | Ki [3] [µM] | Ki [4, 9] [µM] | Ki [3, 11] [µM] | Ki [4] [µM] | other results
O=C(C(=O)c1ccc([N+](=O)[O-])cc1[N+](=O)[O-])c1ccccc1 [Compound 11, 1-(2,4-dinitrophenyl)-2-phenylethane-1,2-dione] | > 100 | 0.52 ± 0.031 | > 100 | > 100 | – | – | –
O=C(C(=O)c1ccc(O)cc1O)c1ccc(O)cc1O [Compound 10, 1,2-bis(2,4-dihydroxyphenyl)ethane-1,2-dione] | > 100 | > 100 | – | – | > 100 | > 100 | Ki [5, 10]: 1.73 µM
O=C(C(=O)c1ccc(Br)cc1)c1ccc(Br)cc1 [Compound 15, 1,2-bis(4-bromophenyl)ethane-1,2-dione] | > 100 | 0.0041 ± 0.0005 | – | – | > 100 | > 100 | –
O=C(C(=O)c1cc(Br)ccc1O)c1cc(Br)ccc1O [Compound 9, 1,2-bis(5-bromo-2-hydroxyphenyl)ethane-1,2-dione] | – | 0.0535 ± 0.0094 | > 100 | > 100 | – | – | Ki [1]: > 100 µM
O=C(C(=O)c1ccc(C(=O)C(=O)c2ccccc2)cc1)c1ccccc1 [Compound 38, 1-{4-[oxo(phenyl)acetyl]phenyl}-2-phenylethane-1,2-dione] | – | 0.0061 ± 0.0006 | – | – | > 100 | – | –
Cc1cccc(C)c1NC(=O)Nc1ccc([N+](=O)[O-])cc1 [Compound 54, N-(2,6-dimethylphenyl)-N′-(4-nitrophenyl)urea] | – | – | – | – | – | – | Ki [5, 12]: 0.32 µM; Ki [1, 13]: > 100 µM; Ki [3, 14]: > 100 µM; inhibition at 10 µM [6]: 0%
Cc1ccc(C(=O)C(=O)c2ccccc2)cc1 [Compound 32, 1-(4-methylphenyl)-2-phenylethane-1,2-dione] | 0.125 ± 0.015 | 0.119 ± 0.02 | – | > 100 | > 100 | – | –
Cc1cc([N+](=O)[O-])ccc1NC(=O)Nc1cccc(F)c1 [Compound 55, N-(3-fluorophenyl)-N′-(2-methyl-4-nitrophenyl)urea] | – | – | – | – | – | – | Ki [5, 12]: 1.28 µM; Ki [1, 13]: > 100 µM; Ki [3, 14]: > 100 µM
CN(C)c1ccc(C(=O)C(=O)c2ccc(N(C)C)cc2)cc1 [Compound 13, 1,2-bis[4(dimethylamino)phenyl]ethane-1,2-dione] | > 100 | 2.4 | – | > 100 | > 100 | – | Ki [5, 10]: > 100 µM
O=C(C(=O)c1ccc(Br)c([N+](=O)[O-])c1)c1ccc(Br)c([N+](=O)[O-])c1 [Compound 4, 1,2-bis(4-bromo-3-nitrophenyl)ethane-1,2-dione] | > 100 | 0.0087 ± 0.0013 | > 100 | > 100 | – | – | Ki [5]: > 100 µM
O=C1C=Cc2ccccc2C1=O [Compound 29, Naphthalene-1,2-dione] | – | – | – | – | – | – | inhibition of hiCE [5]: inhibition; inhibition of hCE1 [1]: inhibition; inhibition of rCE [2]: inhibition; inhibition of hAcChE [3]: inhibited
O=C(C(=O)c1ccc(O)cc1)c1ccc(O)cc1 [Compound 35, 1,2-bis(4-hydroxyphenyl)ethane-1,2-dione] | > 100 | > 100 | – | – | > 100 | > 100 | Ki [5, 10]: 1.2 µM
O=C(C(=O)c1cccc([N+](=O)[O-])c1)c1cccc([N+](=O)[O-])c1 [Compound 34, 1,2-bis(3-nitrophenyl)ethane-1,2-dione] | 18.1 | – | > 100 | > 100 | – | – | Ki ([2]; read-out: rCE Ki ± SE): 0.267 ± 0.03 µM
O=C(C(=O)c1ccccc1Cl)c1ccccc1Cl [Compound 30, 1,2-bis(2-chlorophenyl)ethane-1,2-dione] | – | 0.22 ± 0.037 | > 100 | > 100 | – | – | Ki ([1]; read-out: hCE1 Ki ± SE): 1.65 µM
Cc1cc([N+](=O)[O-])ccc1NC(=O)Nc1ccccc1 [Compound 56, N-(2-methyl-4-nitrophenyl)-N′-phenylurea] | – | – | – | – | – | – | Ki [5, 12]: 1.52 µM; Ki [1, 13]: > 100 µM; Ki [3, 14]: > 100 µM; inhibition at 10 µM [6]: 0%
COc1cc(OC)c(NC(=O)c2cc3ccccc3cc2O)cc1Cl [Compound 42, N-(5-chloro-2,4-dimethoxyphenyl)-3-hydroxy-2-naphthamide] | – | – | – | – | – | – | Ki [5, 12]: 0.159 µM; Ki [1, 13]: > 100 µM; Ki [3, 14]: > 100 µM; inhibition at 10 µM [6]: 0%
O=C(C(=O)c1c(Cl)c(Cl)c(Cl)c(Cl)c1Cl)c1c(F)c(F)c(F)c(F)c1F [Compound 12, 1-(pentachlorophenyl)-2-(pentafluorophenyl)ethane-1,2-dione] | – | 0.823 ± 0.215 | > 100 | > 100 | – | – | Ki ([1]; read-out: hCE1 Ki ± SE): 1.69 µM
COc1cccc(C(=O)C(=O)c2cccc(OC)c2)c1 [Compound 33, 1,2-bis(3-methoxyphenyl)ethane-1,2-dione] | 1.54 | 0.0721 ± 0.0091 | – | – | – | > 100 | –
COc1ccc(C(=O)C(=O)c2ccccc2Cl)cc1OC [Compound 8, 1-(2-chlorophenyl)-2-(3,4-dimethoxyphenyl)ethane-1,2-dione] | 3.3 | 0.036 ± 0.012 | – | – | – | > 100 | –
O=C(C(=O)c1ccc(Cl)cc1)c1ccc(Cl)cc1 [Compound 18, 1,2-bis(4-chlorophenyl)ethane-1,2-dione] | > 100 | 0.0141 ± 0.0025 | – | – | > 100 | > 100 | –
O=C(C(=O)c1ccc(Cl)cc1)c1ccccc1 [Compound 31, 1-(4-chlorophenyl)-2-phenylethane-1,2-dione] | 0.0474 ± 0.0068 | 0.0239 ± 0.0029 | – | – | > 100 | > 100 | –
O=C(C(=O)c1ccc(O)c([N+](=O)[O-])c1)c1ccc(O)c([N+](=O)[O-])c1 [Compound 36, 1,2-bis(4-hydroxy-3-nitrophenyl)ethane-1,2-dione] | – | – | > 100 | > 100 | – | – | Ki [5]: > 100 µM; Ki [2]: > 100 µM
COc1ccc(C(=O)C(=O)c2ccc(OC)c([N+](=O)[O-])c2)cc1[N+](=O)[O-] [Compound 37, 1,2-bis(4-methoxy-3-nitrophenyl)ethane-1,2-dione] | – | – | > 100 | > 100 | – | – | Ki [5]: > 100 µM; Ki [1]: > 100 µM
COc1ccc(C(=O)C(=O)c2ccc(OC)cc2)cc1 [Compound 21, 1,2-bis(4-methoxyphenyl)ethane-1,2-dione] | 3.41 | 0.58 ± 0.157 | – | – | > 100 | > 100 | –

Reference: patent publication US7973034B2, “Amide, aryl sulfonamide, aryl urea, and α,β-diketone derived carboxylesterase inhibitors, and their methods of use” (priority 2003, dated 2011)
